# Experimental data: ChEMBL document CHEMBL1145293, “Synthesis and SAR of GlyT1 inhibitors derived from a series of N-((4-(morpholine-4-carbonyl)-1-(propylsulfonyl)piperidin-4-yl)methyl)benzamides” (Bioorg Med Chem Lett, 2006); call rule not given here
# Legend:
# [1] = molecular target: T1, Sodium- and chloride-dependent taurine transporter (Homo sapiens, UniProt P31641); test: Inhibition of human TauT
# T1 sequence (P31641 whole entry): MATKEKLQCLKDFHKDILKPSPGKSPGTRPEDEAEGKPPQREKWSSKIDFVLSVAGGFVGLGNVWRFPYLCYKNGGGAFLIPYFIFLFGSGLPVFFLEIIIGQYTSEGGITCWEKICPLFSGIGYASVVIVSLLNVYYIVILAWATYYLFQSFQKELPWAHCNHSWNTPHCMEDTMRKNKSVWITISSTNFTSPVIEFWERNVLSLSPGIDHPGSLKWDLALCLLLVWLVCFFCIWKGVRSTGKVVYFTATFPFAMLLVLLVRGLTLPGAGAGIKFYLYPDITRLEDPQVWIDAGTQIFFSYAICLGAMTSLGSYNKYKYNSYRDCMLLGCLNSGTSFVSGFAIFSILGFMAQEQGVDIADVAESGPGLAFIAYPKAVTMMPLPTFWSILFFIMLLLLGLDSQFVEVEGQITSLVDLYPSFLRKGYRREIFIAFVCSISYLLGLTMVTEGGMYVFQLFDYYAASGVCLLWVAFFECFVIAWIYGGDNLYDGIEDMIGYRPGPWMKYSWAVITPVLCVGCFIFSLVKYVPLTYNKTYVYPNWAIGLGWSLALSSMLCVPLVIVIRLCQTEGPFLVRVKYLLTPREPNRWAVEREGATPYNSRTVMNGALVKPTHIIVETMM
# [2] = molecular target: T2, Sodium- and chloride-dependent glycine transporter 1 (Homo sapiens, UniProt P48067); test: Inhibition of human GlyT1
# T2 sequence (P48067 whole entry): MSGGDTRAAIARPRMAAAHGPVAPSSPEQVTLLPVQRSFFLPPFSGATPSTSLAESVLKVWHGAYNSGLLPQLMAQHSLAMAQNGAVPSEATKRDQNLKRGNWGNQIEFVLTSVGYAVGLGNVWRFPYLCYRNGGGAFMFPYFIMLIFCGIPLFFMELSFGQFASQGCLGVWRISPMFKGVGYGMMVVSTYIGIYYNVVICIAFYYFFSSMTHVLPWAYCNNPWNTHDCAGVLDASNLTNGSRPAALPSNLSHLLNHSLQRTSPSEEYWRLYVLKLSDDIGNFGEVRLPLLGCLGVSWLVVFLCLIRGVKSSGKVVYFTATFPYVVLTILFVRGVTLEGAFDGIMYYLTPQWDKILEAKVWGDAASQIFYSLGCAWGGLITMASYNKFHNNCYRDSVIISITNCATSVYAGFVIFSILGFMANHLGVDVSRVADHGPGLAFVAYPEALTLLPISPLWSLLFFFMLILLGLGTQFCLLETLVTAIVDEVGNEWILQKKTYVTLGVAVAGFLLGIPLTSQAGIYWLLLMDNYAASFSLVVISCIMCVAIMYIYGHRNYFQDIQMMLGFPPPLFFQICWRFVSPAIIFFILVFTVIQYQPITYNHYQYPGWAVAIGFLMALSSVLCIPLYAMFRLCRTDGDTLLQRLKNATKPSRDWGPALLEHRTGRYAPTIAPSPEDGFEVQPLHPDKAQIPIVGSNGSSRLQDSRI
# [3] = molecular target: T3, Sodium- and chloride-dependent glycine transporter 2 (Homo sapiens, UniProt Q9Y345); test: Inhibition of human GlyT2
# T3 sequence (Q9Y345 whole entry): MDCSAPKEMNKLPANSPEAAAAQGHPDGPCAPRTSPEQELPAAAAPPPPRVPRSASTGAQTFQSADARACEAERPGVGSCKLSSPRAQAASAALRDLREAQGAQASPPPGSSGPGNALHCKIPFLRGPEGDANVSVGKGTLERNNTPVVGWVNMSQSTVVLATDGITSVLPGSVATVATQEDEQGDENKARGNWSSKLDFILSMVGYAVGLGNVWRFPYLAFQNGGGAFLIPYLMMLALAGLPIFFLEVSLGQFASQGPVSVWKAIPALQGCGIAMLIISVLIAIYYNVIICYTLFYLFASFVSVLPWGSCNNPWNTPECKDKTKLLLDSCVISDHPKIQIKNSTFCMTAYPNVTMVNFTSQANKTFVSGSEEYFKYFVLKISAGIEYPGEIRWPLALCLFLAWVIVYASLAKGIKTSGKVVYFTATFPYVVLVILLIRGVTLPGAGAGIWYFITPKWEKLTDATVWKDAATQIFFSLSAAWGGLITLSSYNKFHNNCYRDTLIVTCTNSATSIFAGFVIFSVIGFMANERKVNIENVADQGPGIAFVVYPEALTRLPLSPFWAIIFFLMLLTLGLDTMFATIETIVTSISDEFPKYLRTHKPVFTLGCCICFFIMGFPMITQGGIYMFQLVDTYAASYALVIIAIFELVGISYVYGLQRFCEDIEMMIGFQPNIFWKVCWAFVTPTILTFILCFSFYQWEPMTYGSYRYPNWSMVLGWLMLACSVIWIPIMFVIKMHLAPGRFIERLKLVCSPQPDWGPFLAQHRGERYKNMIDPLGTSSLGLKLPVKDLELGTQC
# [4] = tested on: Caco-2; test: Ratio of permeability from basolateral to apical over apical to basolateral side of Caco-2 cell expressing mouse p-glycoprotein; format: ADME, cell-based; settings: human
# [5] = molecular target: Cytochrome P450 2C9 (Homo sapiens, UniProt P11712); test: Inhibition of CYP2C9; format: ADME
# Sequence of Cytochrome P450 2C9 (P11712 whole entry): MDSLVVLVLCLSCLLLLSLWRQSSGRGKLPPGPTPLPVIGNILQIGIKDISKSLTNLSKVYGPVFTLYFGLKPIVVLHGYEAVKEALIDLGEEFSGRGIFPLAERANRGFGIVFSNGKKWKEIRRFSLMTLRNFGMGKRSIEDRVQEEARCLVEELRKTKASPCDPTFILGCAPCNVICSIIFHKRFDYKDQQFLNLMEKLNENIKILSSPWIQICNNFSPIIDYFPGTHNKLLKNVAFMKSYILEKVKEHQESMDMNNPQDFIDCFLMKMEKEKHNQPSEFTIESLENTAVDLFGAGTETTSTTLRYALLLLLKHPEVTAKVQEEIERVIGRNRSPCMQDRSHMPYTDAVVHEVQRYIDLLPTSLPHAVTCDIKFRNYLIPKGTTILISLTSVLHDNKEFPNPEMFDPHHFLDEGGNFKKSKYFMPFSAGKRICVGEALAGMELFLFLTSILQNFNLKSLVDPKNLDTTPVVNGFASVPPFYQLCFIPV
# [6] = tested on: Caco-2; test: Ratio of permeability from basolateral to apical over apical to basolateral side of Caco-2 cell expressing human p-glycoprotein; format: ADME, cell-based
# [7] = Clearance in rat; format: ADME, organism-based; settings: in vivo
# [8] = molecular target: Cytochrome P450 3A4 (Homo sapiens, UniProt P08684); test: Inhibition of CYP3A4; format: ADME
# Sequence of Cytochrome P450 3A4 (P08684 whole entry): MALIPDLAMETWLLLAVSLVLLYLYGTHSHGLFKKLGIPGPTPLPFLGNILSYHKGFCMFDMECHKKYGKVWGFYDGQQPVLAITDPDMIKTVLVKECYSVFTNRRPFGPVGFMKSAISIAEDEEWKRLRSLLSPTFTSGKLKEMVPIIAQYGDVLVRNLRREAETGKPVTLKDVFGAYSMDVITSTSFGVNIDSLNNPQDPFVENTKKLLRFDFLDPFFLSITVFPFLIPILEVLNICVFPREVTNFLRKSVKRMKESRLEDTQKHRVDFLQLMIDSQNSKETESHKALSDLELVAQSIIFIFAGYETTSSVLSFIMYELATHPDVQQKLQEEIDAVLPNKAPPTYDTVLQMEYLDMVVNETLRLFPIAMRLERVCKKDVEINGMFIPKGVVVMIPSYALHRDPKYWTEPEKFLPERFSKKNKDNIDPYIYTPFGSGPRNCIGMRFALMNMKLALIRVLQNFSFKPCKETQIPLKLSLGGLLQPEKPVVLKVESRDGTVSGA
# [9] = Aqueous solubility of the compound; format: physicochemical
# [10] = molecular target: Cytochrome P450 2D6 (Homo sapiens, UniProt P10635); test: Inhibition of CYP2D6; format: ADME
# Sequence of Cytochrome P450 2D6 (P10635 whole entry): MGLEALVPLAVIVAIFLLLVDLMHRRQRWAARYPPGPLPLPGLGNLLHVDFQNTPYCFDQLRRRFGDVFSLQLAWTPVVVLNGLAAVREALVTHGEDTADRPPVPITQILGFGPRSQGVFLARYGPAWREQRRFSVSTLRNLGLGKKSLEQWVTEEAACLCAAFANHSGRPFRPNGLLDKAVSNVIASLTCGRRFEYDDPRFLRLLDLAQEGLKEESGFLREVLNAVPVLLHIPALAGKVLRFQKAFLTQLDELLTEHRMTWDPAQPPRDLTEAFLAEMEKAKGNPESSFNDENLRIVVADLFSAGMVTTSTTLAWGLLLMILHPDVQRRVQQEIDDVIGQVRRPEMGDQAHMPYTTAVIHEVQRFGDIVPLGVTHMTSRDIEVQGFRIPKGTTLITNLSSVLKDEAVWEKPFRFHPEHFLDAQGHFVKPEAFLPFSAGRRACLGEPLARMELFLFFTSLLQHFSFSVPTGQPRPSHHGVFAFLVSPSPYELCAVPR
# [11] = Half life in rat; format: ADME, organism-based; settings: in vivo
# [12] = Apparent permeability in Caco-2 cells; format: ADME, cell-based; settings: human
# [13] = Partition coefficient, log P of the compound; format: physicochemical; settings: octanol/water
SMILES,IC50 [1] [µM],IC50 [2] [µM],IC50 [3] [µM],Ratio [4],Activity [5],Ratio [6],clearance [7] [mL/min/kg],Activity [8],solubility [9] [µg/mL],Activity [10],half-life [11] [min],Papp [12] [×10⁻⁶ cm/s],logP [13]
CCCS(=O)(=O)N1CCC(CNC(=O)c2ccc(Cl)cc2Cl)(C(=O)C2CC2)CC1,> 30,0.472,> 30,–,–,–,–,–,–,–,–,–,–
CCCS(=O)(=O)N1CCC(CNC(=O)C2CC2)(C(=O)N2CCOCC2)CC1,> 30,> 5,> 30,8.9,Not Active,10.6,18,Not Active,10000,Not Active,18,> 22,< 1.4
CCCS(=O)(=O)N1CCC(CNC(=O)c2c(F)cccc2F)(C(=O)N2CCOCC2)CC1,> 30,0.131,> 30,8.9,Not Active,10.6,18,Not Active,10000,Not Active,18,> 22,< 1.4
CCCS(=O)(=O)N1CCC(C(=O)N2CCOCC2)([C@H](C)NC(=O)c2ccc(Cl)cc2Cl)CC1,–,> 5,–,–,–,–,–,–,–,–,–,–,–
CCCS(=O)(=O)N1CCC(CNC(=O)c2ccc(Cl)cc2Cl)(C(=O)N2CC(N)C2)CC1,> 30,0.109,> 30,–,–,–,–,–,–,–,–,–,–
CCCS(=O)(=O)N1CCC(CNC(=O)c2ccc(F)cc2C(F)(F)F)(C(=O)N2CCOCC2)CC1,> 30,0.0678,> 30,8.9,Not Active,10.6,18,Not Active,10000,Not Active,18,> 22,< 1.4
CCCS(=O)(=O)N1CCC(CNC(=O)CC)(C(=O)N2CCOCC2)CC1,> 30,> 5,> 30,8.9,Not Active,10.6,18,Not Active,10000,Not Active,18,> 22,< 1.4

# Second part, the compound after the results:
IC50 [1] [µM],IC50 [2] [µM],IC50 [3] [µM],Ratio [4],Activity [5],Ratio [6],clearance [7] [mL/min/kg],Activity [8],solubility [9] [µg/mL],Activity [10],half-life [11] [min],Papp [12] [×10⁻⁶ cm/s],logP [13],SMILES
> 30,0.264,> 30,8.9,Not Active,10.6,18,Not Active,10000,Not Active,18,> 22,< 1.4,CCCS(=O)(=O)N1CCC(CNC(=O)c2ccccc2)(C(=O)N2CCOCC2)CC1
> 30,0.0884,> 30,8.9,Not Active,10.6,18,Not Active,10000,Not Active,18,> 22,< 1.4,CCCS(=O)(=O)N1CCC(CNC(=O)c2ccccc2OC(F)(F)F)(C(=O)N2CCOCC2)CC1
> 30,0.517,> 30,–,–,–,–,–,–,–,–,–,–,CCCS(=O)(=O)N1CCC(CNC(=O)c2ccc(Cl)cc2Cl)(C(=O)NCC)CC1
> 30,0.544,> 30,–,–,–,–,–,–,–,–,–,–,CCCS(=O)(=O)N1CCC(CNC(=O)c2ccc(Cl)cc2Cl)(C(=O)N2CCC(N(C)C)C2)CC1 (centres undefined)
> 30,0.0428,> 30,8.9,Not Active,10.6,18,Not Active,10000,Not Active,18,> 22,< 1.4,CCCS(=O)(=O)N1CCC(CNC(=O)c2ccc(C(F)(F)F)cc2F)(C(=O)N2CCOCC2)CC1
> 30,0.069,> 30,–,–,–,–,–,–,–,–,–,–,CCCS(=O)(=O)N1CCC(CNC(=O)c2ccc(Cl)cc2Cl)(C(=O)NCC2(C)COC2)CC1
–,> 5,–,–,–,–,–,–,–,–,–,–,–,CCCS(=O)(=O)N1CCC(C(=O)N2CCOCC2)([C@@H](C)NC(=O)c2ccc(Cl)cc2Cl)CC1
> 30,0.181,> 30,–,–,–,–,–,–,–,–,–,–,CCCS(=O)(=O)N1CCC(CNC(=O)c2ccc(Cl)cc2Cl)(C(=O)N(C)C)CC1
> 30,> 5,> 30,–,–,–,–,–,–,–,–,–,–,CCCS(=O)(=O)N1CCC(CNC(=O)c2ccc(Cl)cc2Cl)(C(=O)N2CCN(C)CC2)CC1
